Test results: PubChem BioAssay (NCI)
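In this assay, cells in 96-well plates receive the compound at five concentrations for 48 hours. Endpoints are linearly interpolated between the surrounding concentrations. TGI marks complete inhibition of growth.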

Key:
Experiment in all cases: NCI tumour cell line growth inhibition, 48 h
HCC-2998 colon = system: HCC-2998 colon
HL-60(TB) leukemia = system: HL-60(TB) leukemia
HT29 colon = system: HT29 colon
KM12 colon = system: KM12 colon
MDA-N = system: MDA-N
SF-268 CNS = system: SF-268 CNS
SF-539 CNS = system: SF-539 CNS
SK-MEL-28 melanoma = system: SK-MEL-28 melanoma
SNB-75 CNS = system: SNB-75 CNS
TK-10 renal = system: TK-10 renal

| Structure (SMILES) | TGI (HCC-2998 colon) | TGI (HL-60(TB) leukemia) | TGI (HT29 colon) | TGI (KM12 colon) | TGI (MDA-N) | TGI (SF-268 CNS) | TGI (SF-539 CNS) | TGI (SK-MEL-28 melanoma) | TGI (SNB-75 CNS) | TGI (TK-10 renal) |
| --- | --- | --- | --- | --- | --- | --- | --- | --- | --- | --- |
| O=C(O)CN(CCNC(=O)OCC1c2ccccc2-c2ccccc21)CCNC(=O)OCC1c2ccccc2-c2ccccc21 | 51.3 µM | 50.1 µM | 32.9 µM | 34.7 µM | 36.7 µM | 39.8 µM | 46.7 µM | 42.1 µM | 67.5 µM | 50.6 µM |
| CCCCCCCCCCCCCCCCCCNc1ccn(C2OC(COP(=O)(O)OCC3OC(n4ccc(NC(=O)CCCCCCCCCCCCCCCCC)nc4=O)C(OC(C)=O)C3OC(C)=O)C(OC(C)=O)C2OC(C)=O)c(=O)n1 (stereo not given) | > 100 µM | > 100 µM | > 100 µM | > 100 µM | > 100 µM | > 100 µM | > 100 µM | > 100 µM | > 100 µM | > 100 µM |
| NC(=O)N/N=C(\Cc1nc2ccc(Cl)cc2[nH]c1=O)C(=O)Nc1ccc(Cl)cc1Cl | > 100 µM | > 100 µM | > 100 µM | > 100 µM | > 100 µM | > 100 µM | > 100 µM | > 100 µM | > 100 µM | > 100 µM |
